Reference: patent US20240157017A1, “A MEDICAL DRESSING COMPRISING A BACTERIOSTATIC COMPOSITION” (Mölnlycke Health Care AB, priority 2021, published 2024)

Legend:
[1] = tested on: clinical wound isolates of Pseudomonas aeruginosa; experiment: Effect on clinical wound isolates in SWF; format: cell-based; conditions: 3 mM deferiprone in SWF, 24 hrs at 35° C., all isolates tested
Experimental: Bacteriostatic effect of deferiprone was tested on different clinical wound isolates of Pseudomonas aeruginosa. Isolates were typed according to known virulence factors (FIG. 9a) and subjected for treatment +/−3 mM deferiprone in SWF for 24 hrs at 35° C. Bacterial start concentrations and concentrations after treatment were measured using petrifilm.

[2] = tested on: Pseudomonas aeruginosa (ATCC #15692, PaO1); experiment: Bacteriostatic effect on planktonic cultures with different bacterial inoculum sizes in SWF; format: cell-based; conditions: 3 mM deferiprone in SWF
Experimental: An evaluation of possible bacteriostatic effect of deferiprone (3 mM) on the gram-negative bacterium Pseudomonas aeruginosa (ATCC #15692, PaO1) and effect of bacterial start concentrations was performed. Deferiprone (3 mM) was dissolved into Simulated Wound Fluid (SWF) (fetal bovine serum (FBS) and Peptone Water (PW) mixed in equal proportions, which correspond to the protein and electrolyte concentration of wound exudates (Emiko Aiba-Kojima, MD et.al Wound Rep Reg (2007) 15 511-520; Trengove, N et al Wound Rep Reg (1996) 4 1067-1927)). Bacterial concentrations ranging from 10−1×10^8 CFU/ml were inoculated into different test tubes +/− Deferiprone (3 mM) in SWF and incubated at 35° C. for 24 hrs before bacterial numbers were determined using petrifilm.

[3] = tested on: PaO1; experiment: Growth of planktonic PaO1 at sub-bacteriostatic concentrations in SWF; format: cell-based, Pseudomonas aeruginosa; conditions: 1×10^6 CFU/ml, 72 hrs at 35° C.
[4] = tested on: Pseudomonas aeruginosa (ATCC #15692, PaO1); experiment: Bacterial growth in wells of Calgary biofilm device (petrifilm); format: cell-based; conditions: inoculum 1×10^6 CFU/ml, 24, 48, 72 hrs
Experimental: (§1) An evaluation of possible bacteriostatic effect of deferiprone (3-6 mM) on the gram-negative bacterium Pseudomonas aeruginosa (ATCC #15692, PaO1) and connection to ability to form biofilm on a plastic surface, using the Calgary biofilm device (CBD) (Journal of Clinical Microbiology, June 1999, p. 1771-1776) was performed. This method utilizes 96-well microplates with lids containing 96 plastic cone shaped protrusions that extend into the wells of the plate. By submerging the plastic cones into bacterial solution, biofilm attachment to the pegs can be studied. Different concentrations of Deferiprone (0, 0.37, 0.75, 1.5, 3, 6 mM) were dissolved in Simulated Wound Fluid (SWF) and added to wells in the CBD plate. PaO1 was then inoculated at a total bacterial concentration of 1×10^6 CFU/ml and the lid was placed on the plate. Following incubation at 35° C. for 24, 48, 72 hrs, bacterial concentration from the wells were calculated using petrifilm and the plastic protrusions were analyzed for biofilm attachment using a luminescence kit that quantifies bacterial viability (Promega BacTiter-GLO).

[5] = tested on: virulence factor pyoverdine; experiment: Pyoverdine levels in supernatants by LC-MS; format: cell-based, Pseudomonas aeruginosa; conditions: 0.03 and 0.3 mM deferiprone in SWF, 72 hrs at 35° C.
Experimental: In order to evaluate if sub-bacteriostatic concentrations (<3 mM) of deferiprone have an effect on the virulence factor pyoverdine, supernatants of planktonically grown PaO1 (1×10^6 CFU/ml) +/− deferiprone at 0.3 and 0.03 mM in SWF were analyzed by LC-MS for pyoverdine after 72 hrs at 35° C.

[6] = tested on: Actinobacter baumannii; experiment: Bacteriostatic effect on other gram-negative species in SWF; format: cell-based; conditions: 3 mM deferiprone in SWF, 24 hrs at 35° C.
Experimental: (§2) The bacteriostatic effect of deferiprone was tested on other gram negative species than Pseudomonas aeruginosa in order to see if the bacteriostatic effect of deferiprone extends to other gram negative species. The following bacteria were tested: Actinobacter baumannii, Echerschia coli, Klebsiella pneumoniae +/−3 mM deferiprone in SWF for 24 hrs at 35° C. Bacterial start concentrations and concentrations after treatment were measured using petrifilm.

[7] = tested on: Klebsiella pneumoniae; experiment: as above; format: cell-based; conditions: 3 mM deferiprone in SWF, 24 hrs at 35° C.
Experimental: as §2

[8] = tested on: Echerschia coli; experiment: as above; format: cell-based; conditions: 3 mM deferiprone in SWF, 24 hrs at 35° C.
Experimental: as §2

[9] = tested on: Pseudomonas aeruginosa (ATCC #15692, PaO1); experiment: Biofilm attachment to pegs of Calgary biofilm device (Promega BacTiter-GLO luminescence); format: cell-based
Experimental: as §1

[10] = tested on: PaO1 in a biofilm phenotype; experiment: Bacteriostatic effect in collagen (wound-like matrix) gels, bacteria in biofilm phenotype; format: cell-based, Pseudomonas aeruginosa; conditions: 3 mM deferiprone, different start concentrations, 24 hrs at 35° C.
Experimental: Collagen gels were created and inoculated with 1×10^6 CFU/ml PaO1. Gels were incubated for 24 hrs at 35° C. in order to obtain bacteria in biofilm phenotype. New collagen gels +/−3 mM deferiprone were created and different bacterial start concentrations were inoculated into the gels. Following 24 hrs incubation at 35° C., the gels were solubilized and bacterial counts were measured using petrifilm.

Cc1c(O)c(=O)ccn1C [deferiprone]
effect on growth of clinical wound isolates [1]: bacteriostatic effects | bacterial concentration after 24 hrs ([2]; 35° C., 24 hrs): equals the bacterial start concentration | effect on growth of PaO1 in planktonic cultures ([2]; 35° C., 24 hrs, different start inoculums): true bacteriostatic effect | toxicity to PaO1 ([2]; different start inoculums): non-toxic | effect on growth characteristics of PaO1 ([3]; 0.03 mM deferiprone in SWF): does not affect growth characteristics | effect on growth characteristics of PaO1 ([3]; 0.3 mM deferiprone in SWF): does not affect growth characteristics | effect on growth of PaO1 in CBD wells ([4]; 3 mM deferiprone in SWF): bacteriostatic | effect on growth of PaO1 in CBD wells ([4]; 6 mM deferiprone in SWF): bacteriostatic | pyoverdine levels in supernatants [5]: dose-dependent decrease | effect on growth of Actinobacter baumannii [6]: sensitive | effect on growth of Klebsiella pneumoniae [7]: sensitive | effect on growth of Echerschia coli [8]: same bacteriostatic effects | biofilm formation on pegs of CBD plate ([9]; 3 mM deferiprone in SWF, 24, 48, 72 hrs): No biofilm was formed | biofilm formation on pegs of CBD plate ([9]; 6 mM deferiprone in SWF, 24, 48, 72 hrs): No biofilm was formed | biofilm formation on pegs of CBD plate (read-out signal) ([9]; all other concentrations (0.37, 0.75, 1.5 mM) of deferiprone in SWF): full growth | effect on growth of PaO1 in collagen gel [10]: a bacteriostatic effect is observed
